Earlier results on 2 compounds are cited in patent US20230405042A1, “Compositions to Modify Intestinal Nutrient Absorption, Methods of Making and Uses Thereof” (McMaster University, priority 2022, published 2023).

This data set has as its system rodents. The note with it: oral delivery or injection in rodents.

As for `C[C@@H](O)C(=O)O` [D-lactate], the Liver glycogen formation entry was “leads to glycogen deposition in the liver”.
With `C[C@H](O)C(=O)O` [L-lactate], the Liver glycogen formation result is recorded as “hardly forms any liver glycogen”.
